Measured values from patent US12661308B2, “Antimicrobial AZO compounds and uses thereof” (The Regents Of The University Of Colorado, A Body Corporate, priority 2019, dated 2026).

Columns and labels:
[1] = test system: S. mutans (ATCC 25175) biofilm; assay: Detachment study of S. mutans biofilm on monomer-coated polymeric substrates (Example 1); format: cell-based, Streptococcus mutans; conditions: for detachment of S. mutans biofilm (CFU removed): 50 mg/mL coating solution, light/wash treatment
Procedure: The polymeric substrates were prepared by mixing 54 wt % methyl methacrylate (MMA), 30 wt % polymethylmethacrylate (PMMA, MW ˜35 k), and 16 wt % tetraethylene glycol dimethacrylate (TEGDMA) at 70° C. for 2 hr. After mixing, 1 wt. % azobisisobutyronitrile (AIBN) was added to the formulation as an initiator and mixed.
The mixed formulation was added to circular molds (diameter=6.5 mm) cut from a strip of rubber (thickness=0.9 mm) and pressed between two glass microscope slides. The mold was clamped together and thermally cured at 80° C. for 1.5 hr.
The polymeric substrates were coated as follows. Coating solutions were prepared having the following monomer concentrations (see FIG. 3 for structures of the monomers): 0.5 mg/mL and 50 mg/mL solutions of a phenolic acrylated azobenzene monomer (OH-AAZO), 50 mg/mL acrylated azobenzene monomer (AAZO), 50 mg/mL 4-hydroxyl benzylacrylate (HBA), 50 mg/mL 2-hydroxylethyl methacrylate (HEMA).
The coating solutions included the monomer in N,N′-dimethylformamide (DMF) along with 0.5 mg/mL of AIBN and 0.1 mg/mL of Rhodamine B as an indicator dye. Once mixed, 3 μL of each coating solution was pipetted onto one side of the polymeric substrate and spun at 1000 RPM for 1 min followed by spinning at 6000 RPM for 3 s. The coating was cured under a nail lamp (Melody Susie UV Gel Nail Polish Dryer, Model DR-301C) for at least 15 min before repeating the coating procedure on the other side.
The controlled growth of biofilms varied depending on the bacteria strain. In the case of S. mutans, a BHI agar plate was streaked with S. mutans (ATCC 25175) and allowed to incubate at 37° C. in 5% CO2 for 60 hr to isolate a single bacterial colony. The colony was inoculated in 5 mL of BHI and allowed to incubate statically in the 5% CO2 incubator for 24 hr. The stock solution was diluted 1:50 in a 96-well plate containing the substrates of interest and allowed to incubate in the 5% CO2 incubator for an additional 24 hr.
The detachment study quantified the biofilm grown on each substrate via a series of washes in 1×PBS. The substrate was irradiated using a dental lamp (FlashMax P3 Ortho™, 1900 mW/cm2, wavelength=450-470 nm) on the underside of the vial for a total of ten 3 s irradiations per side. Following the series of washes, the substrate was sonicated for 10 min to remove the residual biofilm on the substrate. The wash solutions were serial diluted, plated, and grown at 37° C. and 5% CO2 to obtain the CFU count.
Images collected from a digital microscope (Zeiss Axioplan II microscope, 630×, step size 0.1 μm) after the substrate and bacteria were treated with BACLIGHT Live/Dead stain are included in FIG. 4.

[2] = test system: S. mutans biofilm; assay: S. mutans biofilm growth on coated pit and fissure dental sealants; format: cell-based, Streptococcus mutans; conditions: coating on pit and fissure sealants
Source text: In some implementations, the azobenzene polymers can be used as an antimicrobial coating on pit and fissure dental sealants. […] Azobenzene coatings can be incorporated into pit and fissure sealants as an anti-bacterial coating to prevent tooth decay.

Compound | detachment of S. mutans biofilm (CFU removed) [1] | S. mutans biofilm growth [2] | S. mutans biofilm on substrate, Live/Dead stain microscopy ([1]; after wash/light treatment)
C=CC(=O)OCc1ccc(O)cc1 [HBA, 4-hydroxybenzyl acrylate] | minimal detachment |  | 
C=C(C)C(=O)OCCO [HEMA, 2-hydroxylethyl methacrylate] | minimal detachment |  | 
Acrylated azobenzene [AAZO] | minimal detachment | significantly reduced | still contained a robust S. mutans biofilm
